What all share (assay type): functional
The target in assay [1] is T1, Heat shock factor protein 1 (Mus musculus, UniProt P38532).
T1 sequence (P38532 whole entry): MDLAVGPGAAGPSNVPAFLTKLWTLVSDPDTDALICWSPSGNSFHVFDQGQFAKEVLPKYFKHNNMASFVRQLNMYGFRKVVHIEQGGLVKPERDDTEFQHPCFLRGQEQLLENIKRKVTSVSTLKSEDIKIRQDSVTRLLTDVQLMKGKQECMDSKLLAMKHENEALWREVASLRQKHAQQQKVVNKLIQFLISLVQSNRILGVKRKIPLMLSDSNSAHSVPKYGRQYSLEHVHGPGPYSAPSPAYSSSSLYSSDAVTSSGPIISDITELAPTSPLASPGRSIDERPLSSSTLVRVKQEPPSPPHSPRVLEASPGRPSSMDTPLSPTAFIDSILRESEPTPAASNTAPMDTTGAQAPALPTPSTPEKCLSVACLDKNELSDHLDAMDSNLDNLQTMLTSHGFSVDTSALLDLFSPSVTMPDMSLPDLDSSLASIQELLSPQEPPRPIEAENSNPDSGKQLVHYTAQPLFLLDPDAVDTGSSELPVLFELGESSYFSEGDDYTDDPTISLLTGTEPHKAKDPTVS
As to the kind of experiment: inhibition of MG132-induced HSE-luciferase signal, confirmation, cell-based, NIH3T3, luminescence, dose retest (AID 2382).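 Also: NIH3T3 fibroblasts with HSF1-driven luciferase reporter stressed by proteasome inhibitor MG132; luminescence from HSF1-driven luciferase expression after 8 hours of MG132 stress.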

The target of assay [2] is T2, Microphthalmia-associated transcription factor (Homo sapiens, UniProt O75030).
T2 sequence (O75030 whole entry): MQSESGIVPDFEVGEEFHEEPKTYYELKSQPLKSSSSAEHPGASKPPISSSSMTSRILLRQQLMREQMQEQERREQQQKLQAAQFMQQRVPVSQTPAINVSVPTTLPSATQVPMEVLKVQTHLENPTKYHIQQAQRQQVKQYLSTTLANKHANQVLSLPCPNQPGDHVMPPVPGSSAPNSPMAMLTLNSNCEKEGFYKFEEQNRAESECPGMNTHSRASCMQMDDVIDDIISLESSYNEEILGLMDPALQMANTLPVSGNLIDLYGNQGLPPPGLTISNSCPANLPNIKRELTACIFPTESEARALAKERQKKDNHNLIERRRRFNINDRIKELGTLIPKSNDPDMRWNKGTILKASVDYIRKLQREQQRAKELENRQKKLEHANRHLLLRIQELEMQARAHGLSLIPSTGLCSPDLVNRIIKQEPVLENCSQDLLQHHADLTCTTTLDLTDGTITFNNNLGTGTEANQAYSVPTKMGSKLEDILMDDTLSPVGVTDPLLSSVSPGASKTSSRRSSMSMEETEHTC
Kind of assay: TRPM1 promoter luciferase signal decrease, dose response, MITF inhibitor project, cell-based, SK-MEL-5, cherry-picked, set 3 (AID 493073).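 Also: SK-MEL-5 melanoma cells with luciferase driven by the MITF target TRPM1 promoter.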

The next assay has as its target Genome polyprotein (dengue virus type 2, UniProt P29990). Kind of assay: Dengue-2 NS5 methyltransferase inhibitors, primary screen, biochemical, confirmation dose response (AID 588689).
Assay [3] concerns the target cGMP-dependent protein kinase 1 (Homo sapiens, UniProt Q13976).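 Also: value from a kinome panel screen with PRKG1 as the panel member.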
Assay [4] deals with Homeodomain-interacting protein kinase 2 (Homo sapiens, UniProt Q9H2X6).
Assay [5] concerns the target Tyrosine-protein kinase ITK/TSK (Homo sapiens, UniProt Q08881).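 Also: affinity for ITK measured as one member of a broad kinase panel profiling binding across the kinome.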
The target of assay [6] is Receptor tyrosine-protein kinase erbB-2 (Homo sapiens, UniProt P04626). Kind of assay: Navigating the Kinome. Panel member name: ERBB2.
For assay [7], the target named is Serine/threonine-protein kinase PAK 1 (Homo sapiens, UniProt Q13153).
Assay [8] concerns the target Homeodomain-interacting protein kinase 4 (Homo sapiens, UniProt Q8NE63).
Assay [9] deals with Protein kinase C iota type (Homo sapiens, UniProt P41743).
The target in assay [10] is Calcium/calmodulin-dependent protein kinase type II subunit delta (Homo sapiens, UniProt Q13557).
The target in assay [11] is Serine/threonine-protein kinase PLK1 (Homo sapiens, UniProt P53350).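 Also: PLK1 measured as one member of a kinome-wide profiling panel.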
For assay [12], the target named is Calcium/calmodulin-dependent protein kinase type 1 (Homo sapiens, UniProt Q14012).
The target in assay [13] is 3-phosphoinositide-dependent protein kinase 1 (Homo sapiens, UniProt O15530).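 Also: value comes from the Navigating the Kinome panel, PDPK1 member.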
For assay [14], the target named is Vascular endothelial growth factor receptor 1 (Homo sapiens, UniProt P17948).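 Also: measured within a kinome-wide profiling panel, FLT1 as the panel member.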
Assay [15] deals with MAP kinase-activated protein kinase 2 (Homo sapiens, UniProt P49137).
Assay [16] deals with Tyrosine-protein kinase JAK2 (Homo sapiens, UniProt O60674).
In another assay the target is SRSF protein kinase 1 (Homo sapiens, UniProt Q96SB4).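 Also: measured as one member of a kinome-wide kinase profiling panel.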
For assay [17], the target named is Cyclin-dependent kinase 5 (Homo sapiens, UniProt Q00535).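 Also: CDK5 measured as one member of a kinase profiling panel.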
For assay [18], the target named is Casein kinase I isoform gamma-1 (Homo sapiens, UniProt Q9HCP0).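 Also: measured as the CSNK1G1 member of a kinome profiling panel.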
In assay [19] the target is Hepatocyte growth factor receptor (Homo sapiens, UniProt P08581).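 Also: kinase panel profiling across the kinome, with MET as the panel member.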
Assay [20] deals with Serine/threonine-protein kinase D2 (Homo sapiens, UniProt Q9BZL6).
In assay [21] the target is Calcium/calmodulin-dependent protein kinase type II subunit beta (Homo sapiens, UniProt Q13554).
For assay [22], the target named is Mast/stem cell growth factor receptor Kit (Homo sapiens, UniProt P10721).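 Also: KIT entry within a kinase panel assay.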
For assay [23], the target named is Megakaryocyte-associated tyrosine-protein kinase (Homo sapiens, UniProt P42679).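 Also: affinity measured as one member of a kinase panel (Navigating the Kinome) against MATK.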
The target of assay [24] is Fibroblast growth factor receptor 3 (Homo sapiens, UniProt P22607).
Assay [25] addresses cAMP-dependent protein kinase catalytic subunit PRKX (Homo sapiens, UniProt P51817).
Assay [26] has as its target Serine/threonine-protein kinase MRCK alpha (Homo sapiens, UniProt Q5VT25).
For assay [27], the target named is Rho-associated protein kinase 1 (Homo sapiens, UniProt Q13464).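 Also: measured within a broad kinome-wide panel profiling many kinases.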
For assay [28], the target named is Platelet-derived growth factor receptor alpha (Homo sapiens, UniProt P16234). Kind of assay: Navigating the Kinome. Panel member name: PDGFRA.
Assay [29] has as its target Glycogen synthase kinase-3 alpha (Homo sapiens, UniProt P49840).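 Also: GSK3A result taken from a broad kinome-wide kinase panel.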

Calls of active or inactive are those of the source.

Sequence of Vascular endothelial growth factor receptor 1 (P17948 whole entry): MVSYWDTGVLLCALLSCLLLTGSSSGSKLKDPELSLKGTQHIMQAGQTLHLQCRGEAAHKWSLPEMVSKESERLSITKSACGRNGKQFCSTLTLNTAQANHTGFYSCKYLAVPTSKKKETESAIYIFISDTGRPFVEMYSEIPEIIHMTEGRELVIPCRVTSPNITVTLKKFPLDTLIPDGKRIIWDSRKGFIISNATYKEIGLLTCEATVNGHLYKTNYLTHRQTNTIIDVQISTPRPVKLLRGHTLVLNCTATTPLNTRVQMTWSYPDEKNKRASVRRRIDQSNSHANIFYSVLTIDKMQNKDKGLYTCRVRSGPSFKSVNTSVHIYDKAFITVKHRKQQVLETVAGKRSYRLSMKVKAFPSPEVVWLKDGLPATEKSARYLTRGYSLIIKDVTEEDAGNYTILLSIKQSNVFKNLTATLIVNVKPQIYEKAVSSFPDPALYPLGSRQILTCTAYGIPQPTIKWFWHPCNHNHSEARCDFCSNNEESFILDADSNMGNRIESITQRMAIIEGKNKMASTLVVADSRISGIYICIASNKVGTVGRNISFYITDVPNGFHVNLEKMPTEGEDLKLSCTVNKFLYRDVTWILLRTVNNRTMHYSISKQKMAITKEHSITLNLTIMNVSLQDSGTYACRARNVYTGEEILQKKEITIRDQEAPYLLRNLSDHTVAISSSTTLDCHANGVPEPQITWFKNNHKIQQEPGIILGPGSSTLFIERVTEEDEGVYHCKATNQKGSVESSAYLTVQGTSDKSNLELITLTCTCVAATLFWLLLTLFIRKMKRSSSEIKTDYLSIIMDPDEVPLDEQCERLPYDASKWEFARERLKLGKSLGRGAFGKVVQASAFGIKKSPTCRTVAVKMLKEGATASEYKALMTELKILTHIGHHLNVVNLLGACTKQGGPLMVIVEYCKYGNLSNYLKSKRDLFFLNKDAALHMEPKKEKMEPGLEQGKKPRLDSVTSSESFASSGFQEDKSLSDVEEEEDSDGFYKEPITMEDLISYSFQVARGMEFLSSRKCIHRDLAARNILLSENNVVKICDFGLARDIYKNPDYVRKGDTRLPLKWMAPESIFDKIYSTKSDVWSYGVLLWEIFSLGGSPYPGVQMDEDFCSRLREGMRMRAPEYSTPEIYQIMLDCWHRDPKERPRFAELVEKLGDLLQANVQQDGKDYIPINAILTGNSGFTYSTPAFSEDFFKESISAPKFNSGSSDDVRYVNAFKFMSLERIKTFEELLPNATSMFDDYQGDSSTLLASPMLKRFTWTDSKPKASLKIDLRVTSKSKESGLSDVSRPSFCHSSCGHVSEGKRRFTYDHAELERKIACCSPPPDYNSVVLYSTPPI
Sequence of Cyclin-dependent kinase 5 (Q00535 whole entry, canonical isoform): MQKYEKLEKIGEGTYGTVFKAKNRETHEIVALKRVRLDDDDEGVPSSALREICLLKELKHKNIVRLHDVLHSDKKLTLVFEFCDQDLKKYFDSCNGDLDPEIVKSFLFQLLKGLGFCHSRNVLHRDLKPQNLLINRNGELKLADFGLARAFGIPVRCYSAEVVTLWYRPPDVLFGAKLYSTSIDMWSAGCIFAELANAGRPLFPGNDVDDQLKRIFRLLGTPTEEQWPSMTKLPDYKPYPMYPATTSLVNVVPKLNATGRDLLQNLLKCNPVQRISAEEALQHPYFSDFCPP
Sequence of Mast/stem cell growth factor receptor Kit (P10721 whole entry): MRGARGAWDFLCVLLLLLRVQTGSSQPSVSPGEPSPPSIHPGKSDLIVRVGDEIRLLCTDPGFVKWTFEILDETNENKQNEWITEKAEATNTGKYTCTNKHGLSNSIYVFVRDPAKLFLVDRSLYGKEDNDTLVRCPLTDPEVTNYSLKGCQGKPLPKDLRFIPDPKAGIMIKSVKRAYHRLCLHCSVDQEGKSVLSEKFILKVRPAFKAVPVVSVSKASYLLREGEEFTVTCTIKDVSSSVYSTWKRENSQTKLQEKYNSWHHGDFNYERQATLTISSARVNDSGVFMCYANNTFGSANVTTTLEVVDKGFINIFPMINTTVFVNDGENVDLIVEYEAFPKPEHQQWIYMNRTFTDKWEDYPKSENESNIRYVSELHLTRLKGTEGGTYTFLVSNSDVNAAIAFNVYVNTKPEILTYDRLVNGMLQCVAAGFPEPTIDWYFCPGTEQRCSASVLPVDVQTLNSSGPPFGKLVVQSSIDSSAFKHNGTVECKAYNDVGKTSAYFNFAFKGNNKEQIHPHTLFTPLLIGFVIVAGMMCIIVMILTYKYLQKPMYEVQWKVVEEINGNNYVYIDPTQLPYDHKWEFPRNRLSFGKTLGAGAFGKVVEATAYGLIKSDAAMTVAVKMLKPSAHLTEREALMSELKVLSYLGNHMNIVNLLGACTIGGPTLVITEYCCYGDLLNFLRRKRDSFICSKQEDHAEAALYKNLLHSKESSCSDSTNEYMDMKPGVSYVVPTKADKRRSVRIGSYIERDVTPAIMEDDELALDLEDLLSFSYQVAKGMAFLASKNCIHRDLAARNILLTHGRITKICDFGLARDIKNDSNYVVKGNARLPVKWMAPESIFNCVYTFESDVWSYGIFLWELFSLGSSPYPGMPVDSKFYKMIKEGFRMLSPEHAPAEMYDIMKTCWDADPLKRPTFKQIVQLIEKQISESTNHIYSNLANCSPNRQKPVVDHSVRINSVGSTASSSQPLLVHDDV
Sequence of cGMP-dependent protein kinase 1 (Q13976 whole entry): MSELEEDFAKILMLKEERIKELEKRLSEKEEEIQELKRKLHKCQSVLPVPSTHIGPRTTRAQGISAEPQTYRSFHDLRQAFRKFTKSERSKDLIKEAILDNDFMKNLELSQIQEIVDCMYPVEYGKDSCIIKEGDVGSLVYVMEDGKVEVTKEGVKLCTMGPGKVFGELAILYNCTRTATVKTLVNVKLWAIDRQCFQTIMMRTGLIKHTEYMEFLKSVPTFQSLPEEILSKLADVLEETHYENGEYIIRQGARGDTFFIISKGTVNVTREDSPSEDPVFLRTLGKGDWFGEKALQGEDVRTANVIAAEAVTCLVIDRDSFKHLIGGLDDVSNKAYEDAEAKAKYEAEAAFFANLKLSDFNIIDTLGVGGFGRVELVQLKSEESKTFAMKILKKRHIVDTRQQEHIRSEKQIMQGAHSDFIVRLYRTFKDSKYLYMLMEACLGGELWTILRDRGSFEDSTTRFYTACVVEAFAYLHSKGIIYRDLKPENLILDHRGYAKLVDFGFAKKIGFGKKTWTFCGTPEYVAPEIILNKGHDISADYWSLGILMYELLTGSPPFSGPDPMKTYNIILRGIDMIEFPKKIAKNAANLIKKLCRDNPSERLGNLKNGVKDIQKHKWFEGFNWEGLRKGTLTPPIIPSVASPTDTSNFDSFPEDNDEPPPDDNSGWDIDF
Sequence of Tyrosine-protein kinase ITK/TSK (Q08881 whole entry): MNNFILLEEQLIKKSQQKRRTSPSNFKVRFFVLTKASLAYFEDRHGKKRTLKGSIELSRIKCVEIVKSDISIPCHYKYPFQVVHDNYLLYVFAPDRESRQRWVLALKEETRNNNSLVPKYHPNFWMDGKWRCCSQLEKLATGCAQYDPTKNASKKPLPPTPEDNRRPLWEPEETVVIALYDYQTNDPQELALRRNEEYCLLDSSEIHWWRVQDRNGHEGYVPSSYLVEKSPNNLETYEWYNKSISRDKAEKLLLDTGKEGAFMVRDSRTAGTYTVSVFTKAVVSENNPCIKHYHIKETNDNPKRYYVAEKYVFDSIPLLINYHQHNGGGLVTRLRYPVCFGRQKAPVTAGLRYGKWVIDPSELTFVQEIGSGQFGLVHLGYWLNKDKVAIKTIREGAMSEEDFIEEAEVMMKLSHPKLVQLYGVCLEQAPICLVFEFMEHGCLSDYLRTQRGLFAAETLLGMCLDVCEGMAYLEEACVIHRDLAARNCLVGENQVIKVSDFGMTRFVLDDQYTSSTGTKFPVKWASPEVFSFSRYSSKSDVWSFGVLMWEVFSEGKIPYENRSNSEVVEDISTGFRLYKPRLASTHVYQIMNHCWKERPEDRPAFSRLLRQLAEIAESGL
Sequence of Casein kinase I isoform gamma-1 (Q9HCP0 whole entry, canonical isoform): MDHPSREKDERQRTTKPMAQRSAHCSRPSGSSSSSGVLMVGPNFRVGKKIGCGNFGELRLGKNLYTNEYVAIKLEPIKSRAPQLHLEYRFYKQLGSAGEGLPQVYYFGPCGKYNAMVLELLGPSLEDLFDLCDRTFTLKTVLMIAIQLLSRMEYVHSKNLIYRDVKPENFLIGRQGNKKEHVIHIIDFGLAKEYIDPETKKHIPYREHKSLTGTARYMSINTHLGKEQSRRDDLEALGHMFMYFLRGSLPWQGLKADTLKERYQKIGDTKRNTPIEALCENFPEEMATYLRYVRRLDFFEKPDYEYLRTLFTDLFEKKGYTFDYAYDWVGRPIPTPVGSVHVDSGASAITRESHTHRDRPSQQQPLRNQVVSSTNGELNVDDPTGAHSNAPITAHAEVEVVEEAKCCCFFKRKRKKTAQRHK
Sequence of Calcium/calmodulin-dependent protein kinase type 1 (Q14012 whole entry): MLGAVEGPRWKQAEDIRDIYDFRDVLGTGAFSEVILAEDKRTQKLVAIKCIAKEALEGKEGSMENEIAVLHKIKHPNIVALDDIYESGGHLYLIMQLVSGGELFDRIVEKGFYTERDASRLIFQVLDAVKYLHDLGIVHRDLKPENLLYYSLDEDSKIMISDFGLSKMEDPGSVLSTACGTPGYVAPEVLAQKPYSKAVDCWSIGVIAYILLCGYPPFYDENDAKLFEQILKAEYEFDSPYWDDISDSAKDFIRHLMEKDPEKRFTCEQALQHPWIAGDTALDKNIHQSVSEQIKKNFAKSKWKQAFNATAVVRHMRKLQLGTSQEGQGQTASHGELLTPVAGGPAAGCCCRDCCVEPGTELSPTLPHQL
Sequence of cAMP-dependent protein kinase catalytic subunit PRKX (P51817 whole entry): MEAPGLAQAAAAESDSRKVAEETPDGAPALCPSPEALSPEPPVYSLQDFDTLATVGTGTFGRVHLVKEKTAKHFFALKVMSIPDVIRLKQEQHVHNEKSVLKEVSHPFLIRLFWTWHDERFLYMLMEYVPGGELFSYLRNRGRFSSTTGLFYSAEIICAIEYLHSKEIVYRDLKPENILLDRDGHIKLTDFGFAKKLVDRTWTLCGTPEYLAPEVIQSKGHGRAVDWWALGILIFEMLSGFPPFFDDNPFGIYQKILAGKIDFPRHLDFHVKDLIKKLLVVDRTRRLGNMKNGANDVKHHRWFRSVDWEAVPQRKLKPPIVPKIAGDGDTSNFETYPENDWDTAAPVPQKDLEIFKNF

`COC(=O)CCS(=O)(=O)c1nc(-c2ccccc2)cc(C(F)(F)F)n1`: the EC50 (usually the concentration at which the effect is half-maximal) in [1] is 9.59 µM (inconclusive). For the same compound, the AC50 (in general, the concentration giving half of the maximal activity seen) in assay [2] was 5.85 µM (active).

For the compound `O=C(O)c1ccc(NC2=C(Cl)C(=O)c3ccccc3C2=O)cc1`, the EC50 in assay [1] was 6.24 µM (active). At Genome polyprotein, the IC50 (commonly the point on the concentration scale where inhibition reaches its midpoint) was 7.76 µM (active).

In the case of `Cc1ccc2nccc(NC(=O)Nc3cccc(C(F)(F)F)n3)c2c1`, the Ki (in general, a measure of affinity in units of concentration, obtained from inhibition or displacement) is > 2 µM (inactive) in [3]; 0.794 µM (active) in assay [4]; > 1.58 µM (inactive) in assay [5]; > 1.58 µM (inactive) in [6]; > 10 µM (inactive) in assay [7]; 0.251 µM (active) in assay [8]. Also, the Ki in assay [9] was > 5.01 µM (inactive); in assay [10], > 6.31 µM (inactive); in [11] it was > 7.94 µM (inactive); in [12] it was > 3.16 µM (inactive); in assay [13], > 3.98 µM (inactive); in [14], > 2 µM (inactive). In addition, the Ki in [15] was > 7.94 µM (inactive); in [16] it was > 2 µM (inactive); at SRSF protein kinase 1, > 7.94 µM (inactive); in [17] it was 0.316 µM (active); in assay [18] it was > 6.31 µM (inactive); in assay [19], > 3.16 µM (inactive). For the same compound, the Ki in assay [20] was > 10 µM (inactive); in [21], > 7.94 µM (inactive); in [22] it was > 3.16 µM (inactive); in assay [23], > 2 µM (inactive); in [24], > 2 µM (inactive); in [25], > 2.51 µM (inactive). In addition, the results for the Ki in assay [26] and in [27] were > 10 µM (inactive) and > 6.31 µM (inactive), respectively.

With `Cc1nn(C)c2sc3c(=O)[nH]cnc3c12`, the Ki in [11] is > 79.4 µM (inactive); in assay [28], 100 µM (active); in assay [29] it was 50.1 µM (active); in [17], 79.4 µM (active); in [19] it was > 31.6 µM (inactive).

As to `Cc1c(/N=C2\C=CC(=O)c3ccccc32)c(=O)n(-c2ccccc2)n1C`, the IC50 on Genome polyprotein was 88.6 µM (active). The AC50 in assay [2] was 5.26 µM (active).

In the case of `COc1cc2c(cc1F)C(c1ccccc1Cl)=Nc1c(n[nH]c1C)N2` [RG-1530], the Ki in assay [3] is > 2 µM (inactive); in [4], > 3.16 µM (inactive); in assay [5] it was 0.126 µM (active); in [6], > 1.58 µM (inactive); in [7] it was 0.316 µM (active); in [8], > 7.94 µM (inactive). Also, the Ki was > 5.01 µM (inactive) in assay [9]; > 6.31 µM (inactive) in assay [10]; > 3.16 µM (inactive) in assay [12]; 0.0501 µM (active) in [13]; 0.316 µM (active) in [28]; 0.0501 µM (active) in assay [29]. The Ki in assay [14] was 0.0501 µM (active); in assay [15], > 7.94 µM (inactive); in [16], 0.126 µM (active); at SRSF protein kinase 1 it was 3.16 µM (active); in [18] it was > 6.31 µM (inactive); in assay [20], > 10 µM (inactive). Further, the Ki is > 7.94 µM (inactive) in assay [21]; 0.2 µM (active) in assay [22]; > 2 µM (inactive) in assay [23]; 0.0251 µM (active) in [24]; > 1.58 µM (inactive) in assay [25]; > 10 µM (inactive) in assay [26]. For the same compound, the Ki in assay [27] is > 2.51 µM (inactive).

These data come from ChEMBL document CHEMBL1201862, “PubChem BioAssay data set” (2004).
